Data: ChEMBL document CHEMBL1201862, “PubChem BioAssay data set” (2004)
Activity calls are given as the source filed them.

Columns and labels:
[1] = target: T1, Corticotropin-releasing factor receptor 2/Corticotropin-releasing factor-binding protein (Homo sapiens, UniProt P24387+Q13324); test: Dose Response confirmation of uHTS hits for small molecule antagonists of the CRF-binding protein and CRF-R2 receptor complex.; type: functional; conditions: read-out: IC50_Mean
T1 sequence (Q13324 whole entry): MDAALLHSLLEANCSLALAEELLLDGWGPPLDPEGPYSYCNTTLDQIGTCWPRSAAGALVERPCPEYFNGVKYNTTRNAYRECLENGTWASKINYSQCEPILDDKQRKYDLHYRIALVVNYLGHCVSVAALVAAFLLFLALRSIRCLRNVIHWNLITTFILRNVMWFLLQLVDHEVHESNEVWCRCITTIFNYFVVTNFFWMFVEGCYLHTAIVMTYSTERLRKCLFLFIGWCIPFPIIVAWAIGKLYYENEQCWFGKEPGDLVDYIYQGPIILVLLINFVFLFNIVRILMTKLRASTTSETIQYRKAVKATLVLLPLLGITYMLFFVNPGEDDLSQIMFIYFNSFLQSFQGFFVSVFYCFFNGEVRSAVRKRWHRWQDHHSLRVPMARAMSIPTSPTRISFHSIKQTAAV
T1 sequence (P24387 whole entry): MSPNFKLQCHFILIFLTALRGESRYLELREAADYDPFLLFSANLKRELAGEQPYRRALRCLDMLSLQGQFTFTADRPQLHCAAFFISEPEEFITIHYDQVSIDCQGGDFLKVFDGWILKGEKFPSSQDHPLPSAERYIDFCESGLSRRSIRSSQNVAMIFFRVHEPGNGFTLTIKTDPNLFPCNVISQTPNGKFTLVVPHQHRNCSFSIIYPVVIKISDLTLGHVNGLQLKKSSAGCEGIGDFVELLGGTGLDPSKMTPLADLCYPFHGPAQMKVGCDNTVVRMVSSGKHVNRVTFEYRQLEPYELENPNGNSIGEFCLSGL

[2] = target: Eukaryotic translation initiation factor 4E (Mus musculus, UniProt P63073); test: eIF4E–eIF4G protein interaction inhibitors, dose response, biochemical, TR-FRET (AID 855); type: functional;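 further: potency for disrupting eIF4E binding to eIF4GI seen as loss of FRET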
[3] = target: T1, Corticotropin-releasing factor receptor 2/Corticotropin-releasing factor-binding protein; test: activators of CRF receptor 2 with binding protein – uHTS hits, confirmation (AID 602473); type: functional; conditions: read-out: EC50_Mean
[4] = CRF-BP/CRF-R2 complex antagonists, dose response, cell-based, uHTS hits, 384-well (AID 651639); type: functional, Homo sapiens; conditions: read-out: IC50_Mean
Bcl-2-like protein 10 = target: T2, Bcl-2-like protein 10 (Homo sapiens, UniProt Q9HD36); test: displacers of TR3 peptide from Bcl-B, primary screen, selectivity assay for Bfl-1 inhibitor project, biochemical, fluorescence polarization, FITC-TR3 peptide (AID 748);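 further: fluorescence polarization from a fluorescein-labelled TR3 peptide binding purified Bcl-B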
T2 sequence (Q9HD36 whole entry): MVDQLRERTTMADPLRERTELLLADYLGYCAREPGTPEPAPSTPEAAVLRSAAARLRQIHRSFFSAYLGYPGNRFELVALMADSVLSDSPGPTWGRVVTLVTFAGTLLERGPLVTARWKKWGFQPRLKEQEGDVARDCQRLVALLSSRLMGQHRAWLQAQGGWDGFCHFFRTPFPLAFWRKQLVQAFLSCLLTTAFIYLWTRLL

Prothrombin = Prothrombin (Homo sapiens, UniProt P00734); test: Thrombin 1536 HTS Dose Response Confirmation. [Related pubchem assays: 1046 (Thrombin 1536 HTS; hits were confirmed in this assay)]; type: functional
[5] = target: T3, Ubiquitin-conjugating enzyme E2 N (Homo sapiens, UniProt P61088); type: functional;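 further: Dose-response confirmation in a TR-FRET assay detecting UBC13-driven polyubiquitin chain formation, inhibition measured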
T3 sequence (P61088 whole entry): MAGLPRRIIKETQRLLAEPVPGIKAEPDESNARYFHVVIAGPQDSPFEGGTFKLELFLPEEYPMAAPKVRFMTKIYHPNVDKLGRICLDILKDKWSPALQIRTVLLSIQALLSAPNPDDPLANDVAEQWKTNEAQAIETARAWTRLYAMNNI

[6] = target: T4, DNA repair protein RAD52 homolog (Homo sapiens, UniProt P43351); type: functional, biochemical
T4 sequence (P43351 whole entry): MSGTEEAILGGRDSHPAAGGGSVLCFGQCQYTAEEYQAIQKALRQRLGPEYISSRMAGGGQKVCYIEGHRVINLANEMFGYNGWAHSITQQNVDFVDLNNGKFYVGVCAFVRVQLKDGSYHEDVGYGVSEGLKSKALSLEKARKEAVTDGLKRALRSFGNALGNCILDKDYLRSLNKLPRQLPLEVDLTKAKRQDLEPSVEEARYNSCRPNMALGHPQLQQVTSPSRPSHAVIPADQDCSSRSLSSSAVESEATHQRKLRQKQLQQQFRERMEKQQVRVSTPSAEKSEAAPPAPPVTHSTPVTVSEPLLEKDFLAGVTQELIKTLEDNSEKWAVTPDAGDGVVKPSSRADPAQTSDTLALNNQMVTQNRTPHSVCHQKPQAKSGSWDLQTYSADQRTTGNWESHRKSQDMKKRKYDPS

[7] = inhibitors of HIV Env-driven cell fusion, dose response, cherry-pick (AID 652057); type: functional, cell-based
[8] = NIH:OVCAR-3 ovarian cancer cell cytotoxicity, dose response, PAX8 inhibitor project, plate reader, dry powder samples (AID 743044); type: functional, cell-based
Paired box protein Pax-8 = Paired box protein Pax-8 (Homo sapiens, UniProt Q06710); test: inhibitors of PAX8-driven TPO luciferase reporter, dose response, RMG-I cells, cherry-pick (AID 687027); type: functional, cell-based;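 further: luciferase reporter driven by Pax8 target thyroperoxidase promoter measured by SteadyGlo luminescence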
[9] = ZM109 Env clade C HIV-1 fusion inhibitors, dose response, HeLa effector, CEM target cells, luciferase, cherry-pick (AID 652058); type: functional, cell-based
[10] = inhibitors of clade B AD8 Env fusion, dose response, cell-based, cherry-pick (AID 652062); type: functional;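 further: luciferase signal from cell-cell fusion driven by HIV-1 clade B AD8 Env; potency is for inhibitors of fusion seen as a drop in luminescence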
[11] = THP-1 cell cytotoxicity, dose response, cytotoxicity control for non-replicating M. tuberculosis project (AID 489025); type: functional
INS1 = test: beta cell apoptosis inhibitors, cytokine rescue, dose response, luminescence, retest (AID 449756); type: functional, cell-based; conditions: Rattus norvegicus;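 further: cell death triggered by IL-1 beta plus TNF-alpha plus IFN-gamma mixture; protective hits raise ATP signal compared with cytokine alone wells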
cells = type: functional
[12] = Vero E6 cell cytotoxicity, dose response, cytotoxicity control for non-replicating M. tuberculosis project, secondary assay (AID 492998); type: functional, VeroE6; conditions: Vero C1008
Cytochrome P450 2C9 = Cytochrome P450 2C9 (Homo sapiens, UniProt P11712)
[13] = target: T5, Voltage-gated N-type calcium channel alpha-1B subunit/Amyloid beta A4 precursor protein-binding family A member 1 (Homo sapiens, UniProt Q00975+Q02410); type: protein assay
Cytochrome P450 2C19 = Cytochrome P450 2C19 (Homo sapiens, UniProt P33261); test: Cytochrome panel assay with activity outcomes. Panel member name: p450-cyp2c19 Compounds with AC50 equal or less than 10 uM are considered active; type: functional; conditions: read-out: AC50
[14] = target: T5, Voltage-gated N-type calcium channel alpha-1B subunit/Amyloid beta A4 precursor protein-binding family A member 1; type: protein assay; remark: listed apart in the source
Insulin-degrading enzyme [15] = target: T6, Insulin-degrading enzyme (Homo sapiens, UniProt P14735); test: activators of endogenous IDE in HEK cells, dose response, cell-based, fluorescence polarization (AID 588439); type: functional
T6 sequence (P14735 whole entry): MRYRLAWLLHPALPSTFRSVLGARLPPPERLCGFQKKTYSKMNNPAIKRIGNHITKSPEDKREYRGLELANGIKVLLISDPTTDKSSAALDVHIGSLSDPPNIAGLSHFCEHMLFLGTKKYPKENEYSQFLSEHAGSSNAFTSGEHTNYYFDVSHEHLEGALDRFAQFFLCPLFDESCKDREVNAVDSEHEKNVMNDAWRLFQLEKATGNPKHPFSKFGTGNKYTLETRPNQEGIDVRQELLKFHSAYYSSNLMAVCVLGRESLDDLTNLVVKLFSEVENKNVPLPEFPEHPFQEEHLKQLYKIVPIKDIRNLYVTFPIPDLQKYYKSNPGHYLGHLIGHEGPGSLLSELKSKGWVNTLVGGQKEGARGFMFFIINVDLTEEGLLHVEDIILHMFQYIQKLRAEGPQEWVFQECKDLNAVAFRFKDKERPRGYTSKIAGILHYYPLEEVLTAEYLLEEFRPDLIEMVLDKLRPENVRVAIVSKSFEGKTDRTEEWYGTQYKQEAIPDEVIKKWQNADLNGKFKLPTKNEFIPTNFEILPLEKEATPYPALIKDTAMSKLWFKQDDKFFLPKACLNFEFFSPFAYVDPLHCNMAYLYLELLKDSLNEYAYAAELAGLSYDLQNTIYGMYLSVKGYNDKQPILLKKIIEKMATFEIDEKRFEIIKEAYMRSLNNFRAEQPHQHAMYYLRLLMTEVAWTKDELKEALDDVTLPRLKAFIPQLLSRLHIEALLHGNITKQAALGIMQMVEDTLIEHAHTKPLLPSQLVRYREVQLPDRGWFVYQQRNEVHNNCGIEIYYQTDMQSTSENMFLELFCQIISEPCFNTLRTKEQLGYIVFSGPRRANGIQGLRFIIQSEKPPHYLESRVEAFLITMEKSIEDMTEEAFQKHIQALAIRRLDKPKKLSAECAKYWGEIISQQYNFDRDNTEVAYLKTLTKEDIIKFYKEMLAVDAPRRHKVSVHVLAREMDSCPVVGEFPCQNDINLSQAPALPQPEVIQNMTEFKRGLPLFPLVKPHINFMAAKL

HEK293 [16] = test: HEK cell cytotoxicity by LDH release, dose response, cytotoxicity control for IDE activator project, fluorescence, HEK cells (AID 588440); type: functional, cell-based; conditions: Homo sapiens;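 further: cytotoxicity by LDH release measuring loss of membrane integrity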
HEK293 [17] = test: optical interference in Abeta FP readout, dose response, artefact control for IDE activator project, biochemical, fluorescence polarization (AID 588442); type: functional, cell-based; conditions: Homo sapiens
Insulin-degrading enzyme [18] = target: T6, Insulin-degrading enzyme; test: activators of recombinant IDE enzyme, dose response, counter-screen for IDE activator project, biochemical, fluorescence polarization (AID 588681)
[19] = target: Induced myeloid leukemia cell differentiation protein Mcl-1 (Homo sapiens, UniProt Q07820); type: functional
[20] = non-specific cell cytotoxicity, dose response, cytotoxicity control for PAX8 inhibitor project, plate reader, dry powder samples (AID 743021); type: functional, cell-based

Paired box protein Pax-8, sequence (Q06710 whole entry, the tested form may be a part): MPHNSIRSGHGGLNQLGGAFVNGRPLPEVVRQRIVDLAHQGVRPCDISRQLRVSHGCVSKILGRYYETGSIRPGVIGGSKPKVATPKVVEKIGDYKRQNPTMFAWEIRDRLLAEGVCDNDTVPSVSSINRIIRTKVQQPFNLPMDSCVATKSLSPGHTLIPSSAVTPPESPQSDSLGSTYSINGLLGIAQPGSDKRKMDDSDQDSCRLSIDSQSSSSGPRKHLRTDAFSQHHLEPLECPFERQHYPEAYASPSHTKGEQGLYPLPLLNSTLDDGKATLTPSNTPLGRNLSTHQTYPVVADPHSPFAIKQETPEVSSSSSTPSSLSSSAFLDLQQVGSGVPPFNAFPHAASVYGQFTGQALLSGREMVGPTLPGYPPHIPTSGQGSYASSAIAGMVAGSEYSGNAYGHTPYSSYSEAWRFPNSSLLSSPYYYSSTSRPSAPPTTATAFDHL
T5 sequence (Q00975 whole entry): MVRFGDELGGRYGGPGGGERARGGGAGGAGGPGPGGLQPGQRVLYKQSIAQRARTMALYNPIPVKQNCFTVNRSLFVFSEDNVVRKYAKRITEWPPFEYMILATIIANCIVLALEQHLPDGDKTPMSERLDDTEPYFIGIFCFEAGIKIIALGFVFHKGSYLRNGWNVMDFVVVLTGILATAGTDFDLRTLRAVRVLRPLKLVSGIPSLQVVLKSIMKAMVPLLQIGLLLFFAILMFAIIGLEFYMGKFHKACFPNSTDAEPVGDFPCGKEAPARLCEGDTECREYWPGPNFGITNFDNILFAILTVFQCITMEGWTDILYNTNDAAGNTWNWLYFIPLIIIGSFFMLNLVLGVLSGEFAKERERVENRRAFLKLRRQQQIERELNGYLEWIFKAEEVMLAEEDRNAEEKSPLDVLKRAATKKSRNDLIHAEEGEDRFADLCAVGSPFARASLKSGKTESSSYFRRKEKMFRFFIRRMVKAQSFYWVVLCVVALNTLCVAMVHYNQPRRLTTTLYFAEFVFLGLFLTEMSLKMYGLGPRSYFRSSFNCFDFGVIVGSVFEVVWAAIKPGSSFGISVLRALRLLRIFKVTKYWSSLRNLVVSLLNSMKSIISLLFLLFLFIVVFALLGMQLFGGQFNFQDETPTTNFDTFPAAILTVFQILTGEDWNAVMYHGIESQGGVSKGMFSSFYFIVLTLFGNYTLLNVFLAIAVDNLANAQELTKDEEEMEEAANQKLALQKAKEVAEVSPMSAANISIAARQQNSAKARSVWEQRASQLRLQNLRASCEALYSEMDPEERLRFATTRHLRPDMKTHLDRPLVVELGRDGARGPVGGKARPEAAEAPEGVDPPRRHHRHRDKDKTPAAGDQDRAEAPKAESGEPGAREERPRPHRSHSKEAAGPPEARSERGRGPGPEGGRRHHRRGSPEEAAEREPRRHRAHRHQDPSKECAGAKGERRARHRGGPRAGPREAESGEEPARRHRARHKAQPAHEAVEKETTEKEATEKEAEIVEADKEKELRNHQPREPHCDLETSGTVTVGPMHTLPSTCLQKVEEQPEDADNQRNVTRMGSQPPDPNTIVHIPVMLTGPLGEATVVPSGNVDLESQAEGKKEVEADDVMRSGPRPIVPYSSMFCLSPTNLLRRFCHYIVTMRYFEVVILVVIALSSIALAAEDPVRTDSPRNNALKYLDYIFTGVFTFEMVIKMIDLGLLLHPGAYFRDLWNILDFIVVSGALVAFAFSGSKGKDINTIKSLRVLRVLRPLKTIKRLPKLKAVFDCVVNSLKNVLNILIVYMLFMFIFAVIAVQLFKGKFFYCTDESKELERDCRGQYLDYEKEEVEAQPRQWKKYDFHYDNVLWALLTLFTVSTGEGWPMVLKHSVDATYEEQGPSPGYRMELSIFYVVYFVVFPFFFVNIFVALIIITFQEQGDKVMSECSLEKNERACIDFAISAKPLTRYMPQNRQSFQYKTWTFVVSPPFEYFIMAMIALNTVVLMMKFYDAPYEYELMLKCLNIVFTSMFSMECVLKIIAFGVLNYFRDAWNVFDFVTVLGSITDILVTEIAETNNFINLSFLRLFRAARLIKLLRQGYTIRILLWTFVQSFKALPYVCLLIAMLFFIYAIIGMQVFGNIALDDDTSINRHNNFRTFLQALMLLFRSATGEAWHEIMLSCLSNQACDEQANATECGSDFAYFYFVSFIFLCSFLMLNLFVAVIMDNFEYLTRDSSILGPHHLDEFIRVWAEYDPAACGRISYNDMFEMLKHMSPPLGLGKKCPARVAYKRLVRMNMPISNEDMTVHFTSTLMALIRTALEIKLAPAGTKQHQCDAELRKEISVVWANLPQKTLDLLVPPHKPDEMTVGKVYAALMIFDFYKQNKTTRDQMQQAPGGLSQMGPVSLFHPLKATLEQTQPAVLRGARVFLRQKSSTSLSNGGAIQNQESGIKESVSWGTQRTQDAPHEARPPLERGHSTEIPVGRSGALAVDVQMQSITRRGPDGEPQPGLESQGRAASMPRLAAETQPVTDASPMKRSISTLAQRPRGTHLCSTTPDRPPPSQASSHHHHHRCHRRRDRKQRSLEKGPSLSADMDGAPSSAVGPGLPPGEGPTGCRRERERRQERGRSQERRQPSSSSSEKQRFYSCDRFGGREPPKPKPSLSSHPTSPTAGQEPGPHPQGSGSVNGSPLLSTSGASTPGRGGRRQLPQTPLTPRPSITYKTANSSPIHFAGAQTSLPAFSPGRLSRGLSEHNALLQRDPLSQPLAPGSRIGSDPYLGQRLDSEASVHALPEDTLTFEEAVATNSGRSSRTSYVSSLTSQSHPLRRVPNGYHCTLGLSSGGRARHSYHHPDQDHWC
T5 sequence (Q02410 whole entry): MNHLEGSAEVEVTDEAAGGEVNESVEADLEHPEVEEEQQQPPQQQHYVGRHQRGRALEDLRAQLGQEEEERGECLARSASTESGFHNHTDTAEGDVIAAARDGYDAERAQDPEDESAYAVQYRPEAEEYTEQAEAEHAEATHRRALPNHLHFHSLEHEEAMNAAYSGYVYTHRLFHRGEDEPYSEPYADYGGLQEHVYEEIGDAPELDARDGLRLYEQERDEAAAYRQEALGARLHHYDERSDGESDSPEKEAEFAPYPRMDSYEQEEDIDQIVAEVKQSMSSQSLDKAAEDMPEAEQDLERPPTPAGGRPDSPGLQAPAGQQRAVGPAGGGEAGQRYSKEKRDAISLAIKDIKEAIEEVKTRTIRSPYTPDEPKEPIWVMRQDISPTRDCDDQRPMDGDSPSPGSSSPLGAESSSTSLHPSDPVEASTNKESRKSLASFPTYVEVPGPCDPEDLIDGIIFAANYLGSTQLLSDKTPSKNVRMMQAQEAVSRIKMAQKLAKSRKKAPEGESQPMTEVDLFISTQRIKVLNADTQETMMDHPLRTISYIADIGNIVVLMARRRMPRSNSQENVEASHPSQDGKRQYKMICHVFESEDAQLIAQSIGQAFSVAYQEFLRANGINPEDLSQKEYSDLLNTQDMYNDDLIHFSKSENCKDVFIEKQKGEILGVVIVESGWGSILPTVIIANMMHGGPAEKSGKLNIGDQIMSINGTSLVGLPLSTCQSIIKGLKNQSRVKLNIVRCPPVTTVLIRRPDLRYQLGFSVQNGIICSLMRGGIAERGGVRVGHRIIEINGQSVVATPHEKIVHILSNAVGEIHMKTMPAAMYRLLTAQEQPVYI
Cytochrome P450 2C9, sequence (P11712 whole entry): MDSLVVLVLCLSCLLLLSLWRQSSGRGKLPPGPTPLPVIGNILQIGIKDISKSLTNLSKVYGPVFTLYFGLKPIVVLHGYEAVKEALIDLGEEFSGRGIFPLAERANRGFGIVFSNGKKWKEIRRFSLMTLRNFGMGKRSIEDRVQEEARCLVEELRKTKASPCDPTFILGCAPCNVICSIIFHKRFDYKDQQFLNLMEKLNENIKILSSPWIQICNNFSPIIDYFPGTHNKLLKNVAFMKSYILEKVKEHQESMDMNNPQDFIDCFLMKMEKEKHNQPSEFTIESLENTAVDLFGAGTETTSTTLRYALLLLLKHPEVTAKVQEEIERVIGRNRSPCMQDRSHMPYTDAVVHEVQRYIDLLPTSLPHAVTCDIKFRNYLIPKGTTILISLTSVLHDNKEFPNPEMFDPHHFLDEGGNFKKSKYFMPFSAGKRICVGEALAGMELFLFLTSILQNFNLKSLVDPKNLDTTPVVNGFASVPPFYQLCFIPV
Induced myeloid leukemia cell differentiation protein Mcl-1, sequence (Q07820 whole entry): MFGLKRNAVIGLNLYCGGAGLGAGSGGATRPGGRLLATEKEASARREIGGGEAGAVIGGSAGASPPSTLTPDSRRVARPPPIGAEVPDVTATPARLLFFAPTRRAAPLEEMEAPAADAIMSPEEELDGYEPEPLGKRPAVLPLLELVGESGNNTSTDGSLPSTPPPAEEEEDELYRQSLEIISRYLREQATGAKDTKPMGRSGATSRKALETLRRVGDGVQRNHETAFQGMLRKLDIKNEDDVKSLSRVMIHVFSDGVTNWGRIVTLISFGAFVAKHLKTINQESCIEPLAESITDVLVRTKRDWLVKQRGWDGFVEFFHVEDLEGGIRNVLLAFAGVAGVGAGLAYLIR
Cytochrome P450 2C19, sequence (P33261 whole entry): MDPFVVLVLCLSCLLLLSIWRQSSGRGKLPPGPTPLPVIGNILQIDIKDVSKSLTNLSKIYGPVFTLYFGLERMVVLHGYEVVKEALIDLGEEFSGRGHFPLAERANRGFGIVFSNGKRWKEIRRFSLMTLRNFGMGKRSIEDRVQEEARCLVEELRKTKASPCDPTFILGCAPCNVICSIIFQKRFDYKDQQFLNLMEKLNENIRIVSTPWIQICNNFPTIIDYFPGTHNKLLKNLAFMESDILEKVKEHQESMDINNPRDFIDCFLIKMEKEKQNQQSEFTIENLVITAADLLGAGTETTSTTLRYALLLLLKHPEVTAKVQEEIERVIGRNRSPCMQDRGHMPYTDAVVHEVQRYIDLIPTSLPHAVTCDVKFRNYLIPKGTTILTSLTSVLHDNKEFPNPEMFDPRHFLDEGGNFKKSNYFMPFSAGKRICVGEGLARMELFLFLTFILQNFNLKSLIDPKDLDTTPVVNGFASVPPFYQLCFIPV

Compound: CO/N=C/C(C#N)c1ncc(C(F)(F)F)cc1Cl (configuration not stated)
- IC50 [1]: 4.92 µM (active)
- IC50 [2]: > 64 µM (inactive)
- EC50 [3]: 5.81 µM (active)
- IC50 [4]: 6.73 µM (active)

Compound: CCS(=O)(=O)NCc1ccc2c(c1)cc(C)n2C
- IC50 (Bcl-2-like protein 10): > 50 µM (inactive)

Compound: CCCCC[C@@H]1C=C(C(=O)O)[C@H](c2cccc(C)c2)N1S(=O)(=O)c1ccc(C)cc1
- IC50 [1]: 36.6 µM (active)
- EC50 [3]: 40.7 µM (active)
- IC50 [4]: > 20 µM (inactive)

Compound: COc1ccc(N2C(=O)/C(=C/Nc3ccccc3)c3ccccc3C2=O)cc1
- IC50 (Prothrombin): > 50 µM (not active)

Compound: O=c1[nH]nc(SCc2nnc(-c3ccc([N+](=O)[O-])cc3)o2)n1C1CCCCC1
- IC50 (Prothrombin): 4.04 µM (active)

Compound: ClCCN1CCN(c2ccnc3cc(Cl)ccc23)CC1
- IC50 [5]: > 20 µM (inactive)
- AC50 [6]: 17.2 µM (active)

Compound: CN(C)c1ccc(C=C2C(=O)OC(C)(C)OC2=O)cc1
- IC50 [1]: 5.16 µM (active)
- EC50 [3]: > 53 µM (inactive)
- IC50 [4]: 7.91 µM (active)

Compound: O=C(COC(=O)CCC(=O)c1cccs1)Nc1ccccc1[N+](=O)[O-]
- IC50 (Prothrombin): 6.93 µM (active)

Compound: Cn1c(C(C#N)C2=C(Cl)C(=O)N(c3ccccc3)C2=O)nc2ccccc21 (configuration not stated)
- IC50 (Bcl-2-like protein 10): 16.5 µM (active)

Compound: Cc1ccc(S(=O)(=O)Nc2ccc3c(c2)CC(=O)N([C@H](C)CO)C[C@H](C)[C@H](CN(C)S(=O)(=O)c2ccc(F)cc2)O3)cc1
- AC50 [7]: 5.23 µM (active)
- AC50 [8]: 59.2 µM (active)
- AC50 (Paired box protein Pax-8): 25.3 µM (active)
- AC50 [9]: 5.04 µM (active)
- AC50 [10]: 4.36 µM (active)

Compound: Cc1cc(C)nc(-n2nc(C)cc2Nc2ccccc2)n1
- CC50 [11]: > 40 µM (active)
- AC50 (INS1): 2.91 µM (active)
- IC50 (cells): 0.5 µM (active)
- IC50 (Prothrombin): > 50 µM (not active)
- CC50 [12]: > 20 µM (active)

Compound: COc1ccc(CC(=O)Nc2ccc(-c3nnc(-c4ccccc4)o3)cc2)cc1
- AC50 (Cytochrome P450 2C9): 0.224 µM (inconclusive)
- IC50 [13]: > 50 µM (inactive)
- AC50 (Cytochrome P450 2C19): 1.26 µM (inconclusive)
- IC50 [14]: 8.88 µM (active)

Compound: CN(c1ccccc1)S(=O)(=O)c1cccc(NC(=O)COc2cccc([N+](=O)[O-])c2)c1
- IC50 [1]: > 23.6 µM (inactive)
- EC50 (Insulin-degrading enzyme [15]): > 54.7 µM (inactive)
- IC50 (HEK293 [16]): > 89.2 µM (inactive)
- EC50 (HEK293 [17]): > 55.9 µM (inactive)
- EC50 [3]: > 53 µM (inactive)
- EC50 (Insulin-degrading enzyme [18]): > 54.7 µM (inactive)
- IC50 [4]: > 20 µM (inactive)

Compound: CC(NC(=O)CN(C1CCCCC1)S(C)(=O)=O)c1ccccc1 (configuration not stated)
- IC50 (Prothrombin): > 50 µM (not active)

Compound: Cc1ccc(OCC(=O)Nc2ccc(N3CCCC3)cc2)cc1C
- IC50 [19]: 6.68 µM (active)
- IC50 (Bcl-2-like protein 10): 40.8 µM (active)

Compound: C[C@@H]1CN([C@@H](C)CO)C(=O)Cc2cc(NS(=O)(=O)c3cccs3)ccc2O[C@H]1CN(C)Cc1ccc(C(F)(F)F)cc1
- AC50 [7]: 10.1 µM (active)
- AC50 [8]: 32.8 µM (active)
- AC50 (Paired box protein Pax-8): 5.33 µM (active)
- AC50 [9]: 1.39 µM (active)
- AC50 [10]: 25.8 µM (active)

Compound: C[C@@H]1CN([C@H](C)CO)C(=O)c2cc(NC(=O)Nc3ccc(C(F)(F)F)cc3)ccc2O[C@@H](C)CCCCO[C@@H]1CN(C)C(=O)NC1CCCCC1
- AC50 [8]: 35.7 µM (active)
- AC50 [20]: 2.66 µM (active)
- AC50 (Paired box protein Pax-8): 4.46 µM (active)

Compound: CC(=O)Nc1ccc(Nc2nc3ccccc3nc2NS(=O)(=O)c2ccc(Cl)c([N+](=O)[O-])c2)cc1
- IC50 [1]: 6.14 µM (active)
- EC50 [3]: > 53 µM (inactive)
- IC50 [4]: 10.2 µM (active)
